Assay results reported in patent US10647680B2, “Urea compound, preparation method therefor and medical use thereof” (Ancureall Pharmaceutical (Shanghai) Co., Ltd., priority 2016, dated 2020).

Legend:
[1] = system: ZR-75-30 (HER2/ErbB2 amp); assay: In vitro growth inhibition (GI50), ZR-75-30; type: cell-based; details: Homo sapiens
Text: (§1) Tumor cell line is an effective cell model for studying the inhibition of tumor cell growth or proliferation in vitro. In the present invention, a representative tumor cell line was selected to determine the cell growth inhibition activity of the present compound. All cell lines used were from ATCC, DSMZ, and the Cell Bank of the Chinese Academy of Sciences. Cell culture conditions and methods were in accordance with the requirements of each cell line. Cells were subcultured in vitro for no more than 3 passages each time, and as required, single-clone purification and identification of cell lines could be carried out.
(§2) The cell culture media used were RPMI1640 (Gibco), MEM (Gibco), McCOY'S5A (Gibco), and IMDM (Gibco). The complete medium was prepared by supplement with 5˜20% fetal calf serum (Gibco), 1% double-antibiotics (10000 units/mL penicillin and 10000 units/mL), 2 mM glutamine or 1 mM sodium pyruvate, respectively.
(§3) Human gastric cancer cell line NCI-N87 (HER2/ErbB2 amp, ATCC), human breast cancer cell line HCC1954 (HER2/ErbB2 amp, ATCC) and ZR-75-30 (HER2/ErbB2 amp, ATCC), human adenocarcinoma cell line AU565 (HER2/ErbB2 amp, ATCC), human lung squamous cell carcinoma cell line NCI-H2170 (HER2/ErbB2 amp, ATCC), human bronchioalveolar adenocarcinoma cell line NCI-H1781 (HER2/ErbB2 Ins G776V,C mutant type, ATCC) were cultured with a 1×RPMI1640 complete medium (10% FBS), respectively. Human lung adenocarcinoma cell line Calu-3 (HER2/ErbB2 amp, ATCC) was cultured with 1×MEM, 10% FBS, 1% double antibody, 1% NEAA (Gibco), 2 mM glutamine and 1 mM sodium pyruvate. The human breast cancer cell line SK-BR-3 (HER2/ErbB2 amp, ATCC) was cultured with a McCOY'S5A complete medium (10% FBS).
(§4) Adherent cells were digested with 0.25% pancreatin-EDTA (Gibco). The suspension cells were collected by centrifugation. The supernatant was discarded and the cell pellet was resuspended and counted. Different cell concentrations (5˜10×10^4 cells/mL) were prepared according to the growth cycle of each cell line and then seeded on a 96-well plate (Corning), 100 μL/well. The cells were incubated overnight at 37° C., 5% CO2. The compounds were added to the cells on the second day with 2 wells in parallel. The final concentration of organic solvent shall not exceed 1%. The cells were continually incubated for 3 to 5 days, and then subjected to MTT assay.
(§5) The compound of the present invention and the control compound were dissolved in DMSO (Sigma) respectively, with the purity of more than 98%. The compound was stored in a concentration of 10 mM at −20° C. and diluted to 2- or 10-fold series prior to use.
(§6) Dojindo CCK8 reagent kit was used as MTT assay. THERMO […] FC meter was used as microplate reader.
(§7) For adherent cells, culture medium was removed and immediately replaced with the fresh prepared medium which contains 10% CCK8 reagent (100 μL/well). For the suspension cells, CCK8 was directly added to 10% of the final concentration. The cells were continually incubated for 1˜4 h. When a dark yellow color could be observed in the solvent control wells, the absorbance value at OD450 nm was measured and the cell growth rate was calculated according to the following formula: Cell Growth Rate (%)=100*(T−T0)/(C−T0) T=optical density of drug treatment cell well—optical density of blank control well; T0=optical density of cell well before drug treatment—optical density of blank control well; C=optical density of cell well of solvent control group—optical density of blank control well. The concentration value of 50% inhibition of cell growth (GI50) was calculated according to the drug concentration and cell growth rate curve. The experiment was independently repeated 1˜3 times, and subject to biological statistical analysis. 4. Experimental Results
Tumor cell growth inhibition test was performed by selecting representative compounds (compounds 4, 11, 12, 16, 27, 68, 71, 77, 79, 89 and 116 of the present invention). […]

[2] = system: PC-9 (EGFR exon19 E746-A750 deletion); assay: In vitro growth inhibition (GI50), PC-9; type: cell-based; details: Homo sapiens; PC-9, EGFR DelE746-A750
Text: as §1, §2
(§8) Human epidermal cancer cell line A431 (EGFR WT, amplification and high expression, from Shanghai Cell Bank of Chinese Academy of Sciences and ATCC), human lung cancer cell line NCI-H292 (EGFR WT, purchased from Shanghai Cell Bank of Chinese Academy of Sciences), NSCLC cell lines PC-9 and HCC827 (EGFR exon19 E746-A750 deletion, two cell lines are sensitive to the first-generation EGFR PTK inhibitor), NSCLC cell line NCI-H1975 (EGFR L858R/T790M and the first-generation EGFR inhibitor resistance, ATCC) were cultured with 1×RPMI1640 complete medium (supplement with 10% FBS), respectively.
as §4, §5, §6, §7
Tumor cell growth inhibition test was performed by selecting representative compounds (compounds 4, 11, 12, 16, 27, 68, 71, 77, 79, 89 and 116 of the present invention). The initial concentration of the compound was 5,000 nM, then it was serially diluted by 2-fold or 10-fold to 0.01 nM. The GI50 value of each test compound was calculated according to the GI50 assay and calculation method. […]

[3] = system: tumor cells with abnormal expressions of EGFR, HER2/ERBB2, FGFR1, RAS, BRAF, cMET, and ALK genes; assay: In vitro growth inhibition of different tumor cells (summary over the panel); type: cell-based, human; details: GI50 value in the micro-molar range
Text: as §8, §3
The human gastric cancer cell line MKN-45 (c-MET amp, ATCC) and the non-small cell lung cancer cell line NCI-H1993 (c-MET amp, ATCC) were cultured in complete medium comprising 1×RPMI1640 and 10% FBS, respectively.
Human non-small cell lung cancer cell line NCI-H2228 (expressing EML4-ALK fusion gene, ATCC) and human anaplastic large cell lymphoma cell line Karpas-299 (expressing NPM-ALK fusion gene, ATCC) were cultured in complete medium comprising 1×RPMI1640 (10% FBS), respectively. Neuroblastoma cell line SH-SY5Y (expressing ALK F1174L mutant protein, Shanghai Cell Bank, Chinese Academy of Sciences) was cultured in MEM complete medium (1×MEM, 10% FBS, 1% NEAA, 1 mM sodium pyruvate).
Human non-small cell lung cancer cell NCI-H1581 (FGFR1 amp, ATCC) is an FGFR1 gene amplified/overexpressed tumor cell line. It was cultured in complete medium comprising 1×RPMI1640 with 10% FBS.
Human large cell lung cancer cell NCI-H460 (KRAS […] mutant type, ATCC), human non-small cell lung cancer cell line H1299 (NRAS Q61K mutant type, ATCC), human melanoma cell line A375 (BRAF V600E mutant type, Shanghai Cell Bank of Chinese Academy of Sciences), human colon cancer cell line HCT116 (KRAS G13D mutant type, Shanghai Cell Bank, Chinese Academy of Sciences) were cultured in a complete medium of 1×RPMI1640 (10% FBS), respectively. Human non-small cell lung cancer cells A549 (KRAS G12S mutant type, Shanghai Cell Bank, Chinese Academy of Sciences) were cultured in a complete medium of 1× Ham's supplemented with 10% FBS, 1% double antibody, and 2 mM glutamine.
as §4, §5
Dojindo CCK8 reagent kit was used as MTT assay. THERMO […] FC meter was used as microplate reader. […]

Structure (SMILES) | GI50 [1] [µM] | GI50 [2] [µM] | inhibition effect on growth of tumor cells with abnormal expressions of EGFR, HER2/ERBB2, FGFR1, RAS, BRAF, cMET, and ALK genes [3]
CC(C)(C)c1cc(NC(=O)Nc2ccc(-n3cnc4cc(O)ccc43)cc2)no1 [Compound 4, 1-(5-tert-butyl-isoxazol-3-yl)-3-[4-(5-hydroxy-benzimidazol-1-yl)-phenyl]-urea] | > 2.5 | > 2.5 | –
CC(C)(C)c1cc(NC(=O)Nc2ccc(-n3cnc4cc(OCCO)ccc43)cc2)no1 [Compound 11, 1-(5-tert-butyl-isoxazol-3-yl)-3-{4-[5-(2-hydroxy-ethoxyl)-benzimidazol-1-yl]-phenyl]-urea] | > 2.5 | > 2.5 | –
CC(C)(C)c1cc(NC(=O)Nc2ccc(-n3cnc4cc(OCCN5CCOCC5)ccc43)cc2)no1 [Compound 16, 1-(5-tert-butyl-isoxazol-3-yl)-3-{4-[5-(2-morpholin-4-yl-ethoxyl)-benzimidazol-1-yl]-phenyl}-urea] | > 2.5 | > 2.5 | no significant inhibition effect
CC(C)(C)c1cc(NC(=O)Nc2ccc(-n3cnc4ccc(OCCN5CCOCC5)cc43)cc2)no1 [Compound 27, 1-(5-tert-butyl-isoxazol-3-yl)-3-{4-[6-(2morpholin-4-yl-ethoxyl)-benzimidazol-1-yl]-phenyl}-urea] | > 2.5 | > 2.5 | no significant inhibition effect
CC(C)(C)c1cc(NC(=O)Nc2ccc(-n3cnc4ccccc43)cc2)[nH]n1 [Compound 68, 1-(4-benzimidazol-1-yl-phenyl)-3-(5-tert-butyl-2H-pyrazol-3-yl)-urea] | > 2.5 | > 2.5 | no significant inhibition effect
COc1ccc2c(c1)ncn2-c1ccc(NC(=O)Nc2cc(C(C)(C)C)n[nH]2)cc1 [Compound 71, 1-(5-tert-butyl-2H-pyrazol-3-yl)-3-[4-(5-methoxyl-benzimidazol-1-yl)-phenyl]-urea] | > 2.5 | > 2.5 | no significant inhibition effect
COCCOc1ccc2c(c1)ncn2-c1ccc(NC(=O)Nc2cc(C(C)(C)C)n[nH]2)cc1 [Compound 77, 1-(5-tert-butyl-2H-pyrazol-3-yl)-3-{4-[5-(2-methoxyl-ethoxyl)-benzimidazol-1-yl]-phenyl}-urea] | > 2.5 | > 2.5 | no significant inhibition effect
CC(C)(C)c1cc(NC(=O)Nc2ccc(-n3cnc4cc(OCCO)ccc43)cc2)[nH]n1 [Compound 79, 1-(5-tert-butyl-2H-pyrazol-3-yl)-3-{4-[5-(2-hydroxy-ethoxyl)-benzimidazol-1-yl]-phenyl]urea] | > 2.5 | > 2.5 | –
CC(C)(C)c1cc(NC(=O)Nc2ccc(-n3cnc4cc(OCCN5CCOCC5)ccc43)cc2)[nH]n1 [Compound 89, 1-(5-tert-butyl-2H-pyrazol-3-yl)-3-{4-[5-(2-morpholin-4-yl-ethoxyl)-benzimidazol-1-yl]-phenyl}-urea] | > 2.5 | > 2.5 | no significant inhibition effect
CC(C)(C)c1cc(N)n(C(=O)Nc2ccc(-n3cnc4ccccc43)cc2)n1 [Compound 116, 5-amino-3-tert-butyl-pyrazol-1-carboxylic acid (4-benzimidazol-1-yl-phenyl)-amide] | > 2.5 | > 2.5 | no significant inhibition effect
